One experiment deals with endogenous Treg cells. As to the kind of experiment: Endogenous Fat1562/A^b tetramer^+ Treg cells and scTCR-seq after immunization of wild-type B6 mice. The class given is in vivo, mouse. An excerpt:
We next investigated whether Fat1562 immunization of wild-type B6 mice would elicit expansion of particular Treg clones in VAT, and whether their TCRs would resemble the vTreg53 TCR. 16–20 week-old B6 mice were immunized with Fat1562 using the prime and boost scheme (Figure 4—figure supplement 1A), and the Fat1562-reactive CD4^+ T cells were characterized by staining with the Fat1562/A^b-PE tetramer. […] We then sorted individual Fat1562/A^b tetramer^+ Treg cells from the spleen and VAT of these 3 mice into 96-well plates, and determined the sequences of their TCR-β and TCR-α complementarity-determining region (CDR)3 s. […] Within each mouse, the Spl/LNs and VAT Treg clones had the same CDR3α and CDR3β. […] Therefore, although with some degree of variability, Fat1562 was able to expand an endogenous Treg population that highly resembled the original vTreg53 VAT-Treg clone.
Foxp3^+CD4^+ TCRβ^+ Fat1562/A^b-PE^+ Treg cells from VAT or pooled Spl/LN of 16–20 week-old Foxp3-GFP mice were first sorted in bulk before resorting as individual cells using a MoFlo (Beckman Coulter) into wells of 96-well PCR plates containing the reverse transcriptase reaction mix, and cDNA was prepared as described previously ([Burzyn et al., 2013]). Extreme caution was taken to minimize contamination of wells. […]

A further experiment concerns HFD-fed B6.CD45.1^+ mice. As to the kind of experiment: Anti-TNFα and Fat1562 immunization in HFD-fed mice with vTreg53 Treg transfer. To be noted: n ≥ 5, anti-TNFα 10 μg/g i.p. twice a week. The class given is in vivo, mouse. An excerpt: Figure 7. Immunization with Fat1562 following vTreg53 Treg transfer ameliorates HFD-induced insulin resistance. (A–F) Metabolic indices of mice treated as in Figure 6A (n ≥ 7). (A) Body weight. (B) Insulin tolerance test (ITT). (C) Area over curve for ITT analysis. (D) Glucose tolerance test (GTT). (E) Area under curve for GTT analysis. (F) Plasma insulin levels after 6 hr of fasting. Data shown are representative of at least two independent experiments. (G) Scheme of the anti-TNFα experiment. (H) Number of total Treg cells in VAT (n ≥ 5). (I) Number of CD11c^hi inflammatory macrophages in VAT (n ≥ 5). (J) ITT (n ≥ 5). (K) Area over curve for ITT analysis (n ≥ 5). Data are mean ± SD. Figure 7—figure supplement 1. Absolute blood glucose levels. ITT analysis of mice transferred with vTreg53 TCR-tg Tregs and immunized with adjuvant/Fat1562 or adjuvant alone. Data shown are representative of at least two independent experiments (n ≥ 5). [drawing 7]
12-week-old B6.CD45.1^+ mice were fed with HFD and injected intraperitoneally with 10 μg/g body weight anti-TNFα (XT3.11, BioXCell) or isotype control IgG (HRPN, BioXCell) twice a week for 6 weeks, transferred with 0.4 million Treg cells from pooled Spl/LNs of 6-8wk-old male CD45.2^+ Tg^+ Foxp3-GFP^KI/y mice. […] One week after the IFA/peptides injection, ITT (0.75unit/kg insulin) was performed and the composition of different immunocytes were determined.
For GTT, mice were fasted for 15 hr overnight, weighed, and tested for fasting blood-glucose concentrations. […] Blood-glucose levels were measured before and 20, 40, 60, 90, and 120 min after glucose injection. […] Blood-glucose levels were measured before and 20, 40, 60, 90, and 120 min after insulin injection, and were normalized to the blood-glucose levels before insulin injection. The area under the curve (for GTT) or area over the curve (for ITT) were calculated using GraphPad Prism 7.0.

Where no end group is shown, it is not given here.

As for TMYKNPRPMAATG [Fat1562], the “mice with detectable expansion of Fat1562/A^b tetramer^+ Treg population” value in the experiment on endogenous Treg cells (out of the 10 mice immunized, Spl/LN and VAT, 16–20 week-old B6) is “three”. In addition, in the experiment with endogenous Treg cells (three mice, scTCR-seq of CDR3α/β), the “clonality of Fat1562/A^b tetramer^+ Treg population” value is listed as “almost entirely monoclonal”. Besides, the “insulin sensitivity” value in the experiment on HFD-fed B6.CD45.1^+ mice (ITT, 0.75unit/kg insulin) is “slightly improved insulin sensitivity”. Moreover, in the experiment on HFD-fed B6.CD45.1^+ mice (VAT), the “number of CD11c^hi pro-inflammatory macrophages in VAT” value was “reduced the number of CD11c^hi pro-inflammatory macrophages” and the “number of VAT-Treg cells” value was “moderately increased the numbers of VAT-Treg cells”.

Source of the values: PMC7440915, “Discovery of surrogate agonists for visceral fat Treg cells that modulate metabolic indices in vivo” (eLife, 2020).
